Assays:
Assay in all cases: in vitro antimicrobial susceptibility test (MIC, CLSI standard method)
[1] = system: E. coli Z302; assay type: cell-based; details: for The in vitro antimicrobial susceptibility test/MIC: strain Z302 (E. coli), CLA at fixed concentration 4 μg/ml in combinations
Protocol: (§1) Three gram-negative bacteria in Table 3 were tested. The in vitro antimicrobial susceptibility result was obtained according to the standard method of Clinical and Laboratory Standards Institute (CLSI).
(§2) The resistance genes in E. coli Z302 were detected using the microarray in FIG. 1 according to the method in Example 1. […] Thus the kit for detection of resistance genes in gram-negative bacteria in the present invention can be used to specifically detect the resistance genes in the prevalent gram-negative bacteria E. coli.

[2] = system: K. pneumoniae E298; assay type: cell-based, Klebsiella pneumoniae; details: for The in vitro antimicrobial susceptibility test/MIC: strain E298 (K. pneumoniae), CLA at fixed concentration 4 μg/ml in combinations
Protocol: as §1

[3] = system: K. pneumoniae BJ-35; assay type: cell-based, Klebsiella pneumoniae; details: for The in vitro antimicrobial susceptibility test/MIC: strain BJ-35 (K. pneumoniae), CLA at fixed concentration 4 μg/ml in combinations
Protocol: as §1

[4] = system: K. pneumoniae BJ-7; assay type: cell-based, Klebsiella pneumoniae; details: for The in vitro antimicrobial susceptibility test/MIC: strain BJ-7 (K. pneumoniae), CLA at fixed concentration 4 μg/ml in combinations
Protocol: as §1

[5] = system: E. cloacae TR3104; assay type: cell-based; details: strain TR3104; for The in vitro antimicrobial susceptibility test/MIC: CLA at fixed concentration 4 μg/ml in combinations
Protocol: as §1
as §2, with “cloacae TR3104” for “coli Z302”, “example” for “Example”, “cloacae.” for “coli.”

[6] = strain Z302, shown by microarray-detected genes, consistent with MIC results
[7] = strain E298, shown by microarray-detected genes, consistent with MIC results
[8] = strain BJ-35, shown by microarray-detected genes, consistent with MIC results
[9] = strain BJ-7, shown by microarray-detected genes, consistent with MIC results

Compound	The in vitro antimicrobial susceptibility test/MIC [1]	The in vitro antimicrobial susceptibility test/MIC [2]	The in vitro antimicrobial susceptibility test/MIC [3] [µg/mL]	The in vitro antimicrobial susceptibility test/MIC [4] [µg/mL]	The in vitro antimicrobial susceptibility test/MIC [5]	resistance or susceptibility of the isolate [1, 6]	resistance or susceptibility of the isolate [2, 7]	resistance or susceptibility of the isolate [3, 8]	resistance or susceptibility of the isolate [4, 9]	resistance or susceptibility of the isolate ([5]; shown by microarray-detected genes, consistent with MIC results)	inhibition of the isolate's resistance by clavulanate [1, 6]	inhibition of the isolate's resistance by clavulanate [2, 7]	inhibition of the isolate's resistance by clavulanate [3, 8]	inhibition of the isolate's resistance by clavulanate [4, 9]
CC(C)(O/N=C(\C(=O)N[C@@H]1C(=O)N2C(C(=O)[O-])=C(C[n+]3ccccc3)CS[C@H]12)c1csc(N)n1)C(=O)O [CAZ, ceftazidime]	≧128 μg/ml	≧128 μg/ml	4	32	4 µg/mL	–	–	–	–	–	–	–	–	–
CO/N=C(\C(=O)N[C@@H]1C(=O)N2C(C(=O)O)=C(COC(C)=O)CS[C@H]12)c1csc(N)n1 [CTX, cefotaxime]	≧128 μg/ml	≧128 μg/ml	8	64	64 µg/mL	–	–	–	–	–	–	–	–	–
CO[C@@]1(NC(=O)Cc2cccs2)C(=O)N2C(C(=O)O)=C(COC(N)=O)CS[C@@H]21 [FOX, cefoxitin]	≧128 μg/ml	≧128 μg/ml	2	8	≧256 μg/ml	resistant	resistant	susceptible	susceptible	resistant	–	–	–	–
C[C@@H](O)[C@H]1C(=O)N2C(C(=O)O)=C(SCCN=CN)C[C@H]12 [IMP, imipenem]	4 µg/mL	<0.5 µg/mL	<0.5	<0.5	4 µg/mL	–	–	–	–	–	–	–	–	–
O=C(O)[C@H]1/C(=C/CO)O[C@@H]2CC(=O)N21 [clavulanate]	–	–	–	–	–	–	–	–	–	–	not inhibited	not inhibited	inhibited	inhibited
